Measured values: patent US10526294B2, “Pyrrolobenzodiazepines and conjugates thereof” (priority 2016, dated 2020)

Tests used:
Format in all cases: cell-based
SKBR3 cells = experiment: Cell viability assay (CellTiter-Glo), SKBR3; details: Homo sapiens, SK-BR-3, HER2 expressing cells, 72 h
Procedure: (§1) Cell Viability Assay for Antibody-Polymer-Drug Conjugates.
(§2) PBD compounds and conjugates thereof were evaluated for their antiproliferation properties in tumor cell lines in vitro using CellTiter-Glo® (Promega Corp). Cells were plated in black walled 96-well plate and allowed to adhere overnight at 37° C. in a humidified atmosphere of 5% CO2. BT474, SKBR3, NCI-N87 cells (HER2 expressing cells), JIMT1 cells (HER2 medium expression level cells) and MCF7 cells (HER2 low expressing levels cells) and were plated at a density of 5,000 cells per well. The next day the medium was replaced with 50 μL fresh medium and 50 μL of 2× stocks of PBD compounds or antibody-PBD conjugate were added to appropriate wells, mixed and incubated for 72 h. CellTiter-Glo® reagent was added to the wells at room temperature and the luminescent signal was measured after 10 min using a SpectraMax M5 plate reader (Molecular Devices). Dose response curves were generated using SoftMax Pro software. IC50 values were determined from four-parameter curve fitting.

NCI-N87 cells = experiment: Cell viability assay (CellTiter-Glo), NCI-N87; details: Homo sapiens, HER2 expressing cells, 72 h
Procedure: as §1, §2

BT474 cells = experiment: Cell viability assay (CellTiter-Glo), BT474; details: Homo sapiens, BT-474, HER2 expressing cells, 72 h
Procedure: as §1, §2

MCF7 cells = experiment: Cell viability assay (CellTiter-Glo), MCF7; details: Homo sapiens, HER2 low expressing levels cells, 72 h
Procedure: as §1, §2

JIMT1 cells = experiment: Cell viability assay (CellTiter-Glo), JIMT1; details: Homo sapiens, JIMT-1, HER2 medium expression level cells, 72 h
Procedure: as §1, §2

C=C1C[C@H]2C=Nc3cc(OCCCC(=O)Nc4cn(C)c(C(=O)Nc5ccc(-c6nc7ccc(N)cc7[nH]6)cc5)n4)c(OC)cc3C(=O)N2C1 [Compound 9, (S,Z)—N-(4-(5-amino-1H-benzo[d]imidazol-2-yl)phenyl)-4-(4-(7-methoxy-2-methylene-5-oxo-2,3,5,11a-tetrahydro-1H-benzo[e]pyrrolo[1,2-a][1,4]diazepin-8-yloxy)butanamido)-1-methyl-1H-imidazole-2-carboxamide]
IC50 (SKBR3 cells; PBD compounds (Table I)): 0.3 nM | IC50 (NCI-N87 cells; PBD compounds (Table I)): 0.9 nM | IC50 (BT474 cells; PBD compounds (Table I)): 4 nM | IC50 (MCF7 cells; PBD compounds (Table I)): 1.6 nM | IC50 (JIMT1 cells; PBD compounds (Table I)): 0.7 nM

C=C1C[C@H]2C=Nc3cc(OCCCC(=O)Nc4cn(C)c(C(=O)Nc5ccc(-c6cc7cc(N)ccc7[nH]6)cc5)n4)c(OC)cc3C(=O)N2C1 [Compound 18, (S)—N-(4-(5-amino-1H-indol-2-yl)phenyl)-4-(4-((7-methoxy-2-methylene-5-oxo-2,3,5,11a-tetrahydro-1H-benzo[e]pyrrolo[1,2-a][1,4]diazepin-8-yl)oxy)butanamido)-1-methyl-1H-imidazole-2-carboxamide]
IC50 (SKBR3 cells; PBD compounds (Table I)): 0.08 nM | IC50 (NCI-N87 cells; PBD compounds (Table I)): 0.2 nM | IC50 (BT474 cells; PBD compounds (Table I)): 0.5 nM | IC50 (MCF7 cells; PBD compounds (Table I)): 0.7 nM | IC50 (JIMT1 cells; PBD compounds (Table I)): 0.2 nM

C=C1C[C@H]2C=Nc3cc(OCCCC(=O)Nc4cn(C)c(C(=O)Nc5cc(C(=O)Nc6ccc(-c7nc8cc(N)ccc8[nH]7)cc6)n(C)c5)n4)c(OC)cc3C(=O)N2C1 [Compound 24, (S,Z)—N-(5-(4-(5-amino-1H-benzo[d]imidazol-2-yl)phenylcarbamoyl)-1-methyl-1H-pyrrol-3-yl)-4-(4-(7-methoxy-2-methylene-5-oxo-2,3,5,11a-tetrahydro-1H-benzo[e]pyrrolo[1,2-a][1,4]diazepin-8-yloxy)butanamido)-1-methyl-1H-imidazole-2-carboxamide]
IC50 (SKBR3 cells; PBD compounds (Table I)): 1 nM | IC50 (NCI-N87 cells; PBD compounds (Table I)): 3 nM | IC50 (BT474 cells; PBD compounds (Table I)): 21 nM | IC50 (MCF7 cells; PBD compounds (Table I)): 34 nM | IC50 (JIMT1 cells; PBD compounds (Table I)): 1.8 nM

C=C1C[C@H]2C=Nc3cc(OCCCC(=O)Nc4cc(-c5nc6ccc(N)cc6[nH]5)n(C)c4)c(OC)cc3C(=O)N2C1 [Compound 27, (S,Z)—N-(5-(6-amino-1H-benzo[d]imidazol-2-yl)-1-methyl-1H-pyrrol-3-yl)-4-(7-methoxy-2-methylene-5-oxo-2,3,5,11a-tetrahydro-1H-benzo[e]pyrrolo[1,2-a][1,4]diazepin-8-yloxy)butanamide]
IC50 (SKBR3 cells; PBD compounds (Table I)): 6.1 nM | IC50 (NCI-N87 cells; PBD compounds (Table I)): 13 nM | IC50 (BT474 cells; PBD compounds (Table I)): 27.3 nM | IC50 (MCF7 cells; PBD compounds (Table I)): 26 nM | IC50 (JIMT1 cells; PBD compounds (Table I)): 9 nM

C=C1CC2C=Nc3cc(OCCCC(=O)Nc4cn(C)c(C(=O)Nc5ccc(-c6nc7ccc(C(=O)OC)cc7[nH]6)cc5)n4)c(OC)cc3C(=O)N2C1 (stereo not shown) [Compound 33, (Z)-methyl 2-(4-(4-(4-(7-methoxy-2-methylene-5-oxo-2,3,5,11a-tetrahydro-1H-benzo[e]pyrrolo[1,2-a][1,4]diazepin-8-yloxy)butanamido)-1-methyl-1H-imidazole-2-carboxamido)phenyl)-1H-benzo[d]imidazole-6-carboxylate]
IC50 (SKBR3 cells; PBD compounds (Table I)): 0.3 nM | IC50 (NCI-N87 cells; PBD compounds (Table I)): 0.9 nM | IC50 (BT474 cells; PBD compounds (Table I)): 3.1 nM | IC50 (MCF7 cells; PBD compounds (Table I)): 3.4 nM | IC50 (JIMT1 cells; PBD compounds (Table I)): 0.3 nM

C=C1C[C@H]2C=Nc3cc(OCCCC(=O)Nc4cc(C(=O)Nc5ccc(-c6cc(C(=O)NCCCO)n(C)c6)cc5)n(C)c4)c(OC)cc3C(=O)N2C1 [Compound 37, (S,Z)—N-(3-hydroxypropyl)-4-(4-(4-(4-(7-methoxy-2-methylene-5-oxo-2,3,5,11a-tetrahydro-1H-benzo[e]pyrrolo[1,2-a][1,4]diazepin-8-yloxy)butanamido)-1-methyl-1H-pyrrole-2-carboxamido)phenyl)-1-methyl-1H-pyrrole-2-carboxamide]
IC50 (SKBR3 cells; PBD compounds (Table I)): 0.9 nM | IC50 (NCI-N87 cells; PBD compounds (Table I)): 1 nM | IC50 (BT474 cells; PBD compounds (Table I)): 2.9 nM | IC50 (MCF7 cells; PBD compounds (Table I)): 4.9 nM | IC50 (JIMT1 cells; PBD compounds (Table I)): 1 nM

COc1cc2c(cc1OCCCC(=O)Nc1cc(C(=O)Nc3ccc(-c4cc(C(=O)NCCCO)n(C)c4)cc3)n(C)c1)N=C[C@@H]1CCCN1C2=O [Compound 38, (S,Z)—N-(3-hydroxypropyl)-4-(4-(4-(4-(7-methoxy-5-oxo-2,3,5,11a-tetrahydro-1H-benzo[e]pyrrolo[1,2-a][1,4]diazepin-8-yloxy)butanamido)-1-methyl-1H-pyrrole-2-carboxamido)phenyl)-1-methyl-1H-pyrrole-2-carboxamide]
IC50 (SKBR3 cells; PBD compounds (Table I)): 2 nM | IC50 (NCI-N87 cells; PBD compounds (Table I)): 4 nM | IC50 (BT474 cells; PBD compounds (Table I)): 7 nM | IC50 (MCF7 cells; PBD compounds (Table I)): 8 nM | IC50 (JIMT1 cells; PBD compounds (Table I)): 3 nM

C=C1C[C@H]2C=Nc3cc(OCCCC(=O)Nc4cn(C)c(C(=O)Nc5ccc(-c6cc(C(=O)NCCCO)n(C)c6)cc5)n4)c(OC)cc3C(=O)N2C1 [Compound 39, (S)—N-(4-(5-((3-hydroxypropyl)carbamoyl)-1-methyl-1H-pyrrol-3-yl)phenyl)-4-(4-((7-methoxy-2-methylene-5-oxo-2,3,5,11a-tetrahydro-1H-benzo[e]pyrrolo[1,2-a][1,4]diazepin-8-yl)oxy)butanamido)-1-methyl-1H-imidazole-2-carboxamide]
IC50 (SKBR3 cells; PBD compounds (Table I)): 0.6 nM | IC50 (NCI-N87 cells; PBD compounds (Table I)): 0.4 nM | IC50 (BT474 cells; PBD compounds (Table I)): 2.4 nM | IC50 (JIMT1 cells; PBD compounds (Table I)): 0.9 nM

COc1cc2c(cc1OCCCC(=O)Nc1cn(C)c(C(=O)Nc3ccc(-c4cc(C(=O)NCCCO)n(C)c4)cc3)n1)N=C[C@@H]1CCCN1C2=O [Compound 40, (S,Z)—N-(4-(5-(3-hydroxypropylcarbamoyl)-1-methyl-1H-pyrrol-3-yl)phenyl)-4-(4-(7-methoxy-5-oxo-2,3,5,11a-tetrahydro-1H-benzo[e]pyrrolo[1,2-a][1,4]diazepin-8-yloxy)butanamido)-1-methyl-1H-imidazole-2-carboxamide]
IC50 (SKBR3 cells; PBD compounds (Table I)): 0.8 nM | IC50 (NCI-N87 cells; PBD compounds (Table I)): 1.7 nM | IC50 (BT474 cells; PBD compounds (Table I)): 3 nM | IC50 (MCF7 cells; PBD compounds (Table I)): 5.5 nM | IC50 (JIMT1 cells; PBD compounds (Table I)): 1.3 nM

C=C1C[C@H]2C=Nc3cc(OCCCC(=O)Nc4cn(C)c(C(=O)Nc5ccc(-c6cc(C(=O)OCCCN)n(C)c6)cc5)n4)c(OC)cc3C(=O)N2C1 [Compound 41, (S,Z)-3-aminopropyl 4-(4-(4-(4-(7-methoxy-2-methylene-5-oxo-2,3,5,11a-tetrahydro-1H-benzo[e]pyrrolo[1,2-a][1,4]diazepin-8-yloxy)butanamido)-1-methyl-1H-imidazole-2-carboxamido)phenyl)-1-methyl-1H-pyrrole-2-carboxylate]
IC50 (SKBR3 cells; PBD compounds (Table I)): 3 nM | IC50 (NCI-N87 cells; PBD compounds (Table I)): 6.3 nM | IC50 (BT474 cells; PBD compounds (Table I)): 300 nM | IC50 (MCF7 cells; PBD compounds (Table I)): 140 nM | IC50 (JIMT1 cells; PBD compounds (Table I)): 0.8 nM

C=C1C[C@H]2C=Nc3cc(OCCCC(=O)Nc4cn(C)c(C(=O)Nc5ccc(-c6cc(C(=O)NC[C@H](C)O)n(C)c6)cc5)n4)c(OC)cc3C(=O)N2C1 [Compound 42, N-(4-(5-((S)-2-hydroxypropylcarbamoyl)-1-methyl-1H-pyrrol-3-yl)phenyl)-4-(4-((S,Z)-7-methoxy-2-methylene-5-oxo-2,3,5,11a-tetrahydro-1H-benzo[e]pyrrolo[1,2-a][1,4]diazepin-8-yloxy)butanamido)-1-methyl-1H-imidazole-2-carboxamide]
IC50 (SKBR3 cells; PBD compounds (Table I)): 1.4 nM | IC50 (NCI-N87 cells; PBD compounds (Table I)): 1.4 nM | IC50 (BT474 cells; PBD compounds (Table I)): 5.1 nM | IC50 (MCF7 cells; PBD compounds (Table I)): 4.5 nM | IC50 (JIMT1 cells; PBD compounds (Table I)): 1.2 nM

C=C1C[C@H]2C=Nc3cc(OCCCC(=O)Nc4cn(C)c(C(=O)Nc5ccc(-c6cc(C(=O)O)n(C)c6)cc5)n4)c(OC)cc3C(=O)N2C1 [Compound 43, (S,Z)-4-(4-(4-(4-(7-methoxy-2-methylene-5-oxo-2,3,5,11a-tetrahydro-1H-benzo[e]pyrrolo[1,2-a][1,4]diazepin-8-yloxy)butanamido)-1-methyl-1H-imidazole-2-carboxamido)phenyl)-1-methyl-1H-pyrrole-2-carboxylic acid]
IC50 (SKBR3 cells; PBD compounds (Table I)): 8.2 nM | IC50 (NCI-N87 cells; PBD compounds (Table I)): 12 nM | IC50 (BT474 cells; PBD compounds (Table I)): 34.3 nM | IC50 (MCF7 cells; PBD compounds (Table I)): 250 nM | IC50 (JIMT1 cells; PBD compounds (Table I)): 33.2 nM

C=C1C[C@H]2C=Nc3cc(OCCCC(=O)Nc4cn(C)c(C(=O)Nc5ccc(-c6cc7cc(OC)ccc7[nH]6)cc5)n4)c(OC)cc3C(=O)N2C1 [Compound 108, (S,Z)—N-(4-(5-methoxy-1H-indol-2-yl)phenyl)-4-(4-(7-methoxy-2-methylene-5-oxo-2,3,5,11a-tetrahydro-1H-benzo[e]pyrrolo[1,2-a][1,4]diazepin-8-yloxy)butanamido)-1-methyl-1H-imidazole-2-carboxamide]
IC50 (SKBR3 cells; conjugates (Table II)): 0.05 nM | IC50 (NCI-N87 cells; conjugates (Table II)): 0.04 nM | IC50 (BT474 cells; conjugates (Table II)): 0.02 nM | IC50 (MCF7 cells; conjugates (Table II)): 0.43 nM

C=C1CC2C=Nc3cc(OCCCC(=O)Nc4cn(C)c(C(=O)Nc5ccc(-c6cc(C(=O)n7ccc8cc(C(=O)OC)ccc87)n(C)c6)cc5)n4)c(OC)cc3C(=O)N2C1 (stereo not shown) [Compound 109, methyl 1-(4-(4-(4-(4-((7-methoxy-2-methylene-5-oxo-2,3,5,11a-tetrahydro-1H-benzo[e]pyrrolo[1,2-a][1,4]diazepin-8-yl)oxy)butanamido)-1-methyl-1H-imidazole-2-carboxamido)phenyl)-1-methyl-1H-pyrrole-2-carbonyl)-1H-indole-5-carboxylate]
IC50 (NCI-N87 cells; conjugates (Table II)): 0.14 nM | IC50 (BT474 cells; conjugates (Table II)): 0.09 nM | IC50 (MCF7 cells; conjugates (Table II)): 0.18 nM | IC50 (JIMT1 cells; conjugates (Table II)): 0.28 nM
